According to ChEMBL document CHEMBL5252614, “Dioncophyllidine E: The first configurationally semi-stable, 7,3'-coupled naphthyldihydroisoquinoline alkaloid, from Ancistrocladus abbreviatus, with antiausterity activity against PANC-1 human pancreatic cancer cells” (2023):

Experiments:
Assay type in all cases: functional
PANC-1 [1] = test: Induction of cell death in human PANC-1 cells assessed as alteration in cell morphology incubated for 24 hrs in nutrient-deprived medium by ethidium bromide/acridine orange staining based analysis; settings: dose 10-20 µM
PANC-1 [2] = test: Induction of cell death in human PANC-1 cells assessed as increase in cells emitting red fluorescence incubated for 24 hrs in nutrient-deprived medium by ethidium bromide/acridine orange staining based analysis; settings: dose 10-20 µM
PANC-1 [3] = test: Inhibition of colony formation in human PANC1 cells assessed as colony area at 40 uM incubated for 24 hrs in normal nutrient DMEM media followed by replacement with fresh media and further incubated for 10 days (reference value: 52%); design: scale not given: the % may be the effect or the level left
PANC-1 [4] = test: Inhibition of colony formation in human PANC1 cells assessed as colony area at 10 uM incubated for 24 hrs in normal nutrient DMEM media followed by replacement with fresh media and further incubated for 10 days (reference value: 52%); design: scale not given: the % may be the effect or the level left
PANC-1 [5] = test: Preferential cytotoxicity against human PANC-1 cells in nutrient-deprived medium
PANC-1 [6] = test: Inhibition of colony formation in human PANC1 cells assessed as colony area at 20 uM incubated for 24 hrs in normal nutrient DMEM media followed by replacement with fresh media and further incubated for 10 days (reference value: 52%); design: scale not given: the % may be the effect or the level left

Q: `COc1cccc2cc(C)c(-c3ccc4c(c3O)C(C)=N[C@H](C)C4)c(O)c12` was tested. Which Activity (PANC-1 [1]) did it give?
A: Dose-Dependent Effect

Q: What about the Activity (PANC-1 [2]) of the same compound?
A: Dose-Dependent Effect

Q: What about the Activity (PANC-1 [3]) of the same compound?
A: 24%

Q: And the Activity (PANC-1 [4])?
A: 47%

Q: What about the PC50 (PANC-1 [5]) of the same compound?
A: 7.4 µM

Q: What about the Activity (PANC-1 [6]) of the same compound?
A: 38%
